Counter-ions that a name gives are not always drawn.
Tested on: Desulfovibrio desulfuricans G100A
Experiment: microbe, parasite or virus in culture
Assay type: cell-based
Details: for % Inhib. (inhibition of sulfide production): 10 ppm; for inhibition at 10 ppm / inhibition at 30 ppm / inhibition at 10 µg/mL: Desulfovibrio desulfuricans, G100A, read-out: % Inhib. (inhibition of sulfide production)

| Compound | inhibition at 30 ppm | other results |
| --- | --- | --- |
| 1,1'-Iminobis[4-amino]9,10-anthracenedione, sulfonated [Acid black 48] |  | % Inhib. (inhibition of sulfide production): 13.8% |
| 1-Amino-4[4-[[4-chloro-6-[2,3 or 4-sulfophenyl]-amino]-1,3,5-triazin-2-yl]amino]-3-sulfophenyl]-amino]-9,10-dihyro-9,10-dioxo-2-anthracenesulfonic acid [Reactive blue 2] |  | % Inhib. (inhibition of sulfide production): 17.5% |
| CC(=O)OC1C=CCC2C(=O)c3cccc(O)c3C(=O)C12 (racemic) [(+,-)-1-Acetoxy-8-hydroxy-1,4,4a,9a-tetrahydroanthraquinone] |  | inhibition at 10 ppm: 28.1% |
| O=C1c2ccccc2C(=O)c2c1cccc2-c1cccc2c1C(=O)c1ccccc1C2=O [1,1'-Bianthraquinone, [1,1'-Bianthracene]-9,9'10,10'-tetrone] | 12.9% |  |
| O=C1c2ccccc2C(=O)c2c([N+](=O)[O-])ccc(Nc3ccc([N+](=O)[O-])c4c3C(=O)c3ccccc3C4=O)c21 [1,1'-Iminobis(4-nitro-9,10-anthracenedione)] | 5.7% |  |
| Nc1ccc2c(c1N)C(=O)c1ccccc1C2=O [1,2-Diaminoanthraquinone] |  | inhibition at 10 ppm: 28.9% |
| O=C1c2ccccc2C(=O)C2CC=CCC12 (stereo not drawn) [1,4,4a,9a-Tetrahydroanthraquinone] |  | inhibition at 10 ppm: 0 to 7% |
| O=C1c2c(Cl)ccc(Cl)c2C(=O)c2c(Cl)ccc(Cl)c21 [1,4,5,8-Tetrachloroanthraquinone] | 50.6% |  |
| CNc1ccc(NC)c2c1C(=O)c1ccccc1C2=O [1,4-Bis(methylamino)-anthraquinone] | 8.6% |  |
| CCc1cc(CC)c(Nc2ccc(Nc3c(CC)cc(CC)cc3CC)c3c2C(=O)c2ccccc2C3=O)c(CC)c1 [1,4-Bis[(2,4,6-triethylphenyl)amino]-9,10-anthracenedione] | 4.3% |  |
| CC(C)Nc1ccc(NC(C)C)c2c1C(=O)c1ccccc1C2=O [1,4-Di(isopropylamino)anthraquinone, 1,4-Bis[(1-methylethyl)amino]-9,10-anthracenedione] | 5% |  |
| Nc1c(OCCOc2ccccc2)c(OCCOc2ccccc2)c(N)c2c1C(=O)c1ccccc1C2=O [1,4-Diamino-2,3-bis(2-phenoxyethoxy)anthraquinone] | 7.8% |  |
| Nc1ccc(N)c2c1C(=O)c1cccc([N+](=O)[O-])c1C2=O [1,4-Diamino-5-nitroanthraquinone] | 2.7 to 3% |  |
| Nc1ccc(N)c2c1C(=O)c1ccccc1C2=O [1,4-Diaminoanthraquinone] |  | inhibition at 10 ppm: 27.5% |
| O=C1c2ccccc2C(=O)c2c(O)ccc(O)c21 [1,4-Dihydroxyanthraquinone] | 5.2% |  |
| Cc1ccc(C)c2c1C(=O)c1ccccc1C2=O [1,4-Dimethylanthraquinone] | 5.2% |  |
| Nc1ccc(O)c2c1C(=O)c1c(O)ccc(N)c1C2=O [1,5-Diamino-4,8-dihydroxyanthraquinone] | 2.6% |  |
| O=C(Nc1cccc2c1C(=O)c1cccc(NC(=O)c3ccccc3)c1C2=O)c1ccccc1 [1,5-Dibenzamidoanthraquinone, N,N'-(9,10-Dihydro-9,10-dioxo-1,5-anthracenediyl)-bisbenzamide] | 0% |  |
| O=C1c2cccc(Cl)c2C(=O)c2cccc(Cl)c21 [1,5-Dichloroanthraquinone] | 100% |  |
| O=C1c2cccc(O)c2C(=O)c2cccc(O)c21 [1,5-Dihydroxyanthraquinone] |  | inhibition at 10 ppm: 31% |
| O=C1c2cccc(OCc3ccccc3)c2C(=O)c2c(OCc3ccccc3)cccc21 [1,8-Dibenzyloxyanthraquinone, 1,8-Bis(phenylmethoxy)-9,10-anthracenedione] | 4.5% |  |

| Compound | inhibition at 30 ppm | other results |
| --- | --- | --- |
| O=C1c2cccc(Cl)c2C(=O)c2c(Cl)cccc21 [1,8-Dichloroanthraquinone] | 3.9% |  |
| Oc1cccc2cc3cccc(O)c3c(O)c12 [1,8-Dihydroxyanthranol, 1,8-Dihydroxy-9-anthranol] | 88.3% |  |
| O=C1c2ccccc2C(=O)c2c1cccc2N(NS(=O)(=O)O)S(=O)(=O)O [1-(9,10-Dihydro-9,10-dioxo-1-anthracenyl)-1,2-hydrazinedisulfonic acid, di Na salt] |  | inhibition at 10 ppm: 10% |
| O=C1c2ccccc2C(=O)c2c(SBr)cccc21 [1-(Bromothio)anthraquinone] | 6.5% |  |
| CNc1cccc2c1C(=O)c1ccccc1C2=O [1-(Methylamino)anthraquinone] |  | inhibition at 10 µg/mL: 19.1% |
| Nc1c(Br)cc(Br)c2c1C(=O)c1ccccc1C2=O [1-Amino-2,4-dibromoanthraquinone] |  | inhibition at 10 ppm: 44.6% |
| NCCSc1cc(O)c2c(c1N)C(=O)c1ccccc1C2=O [1-Amino-2-(2-aminoethylthio)-4-hydroxyanthraquinone] | 24.7% |  |
| Nc1c(Br)cc(O)c2c1C(=O)c1ccccc1C2=O [1-Amino-2-bromo-4-hydroxyanthraquinone] | 6.5% |  |
| CNc1ccc(N)c2c1C(=O)c1ccccc1C2=O [1-Amino-4-(methylamino)anthraquinone] | 0% |  |
| Nc1ccc(NC(=O)c2ccccc2)c2c1C(=O)c1ccccc1C2=O [1-Amino-4-benzamidoanthraquinone, N-(4-Amino-9,10-dihydro-9,10-dioxo-1-anthracenyl)-benzamide] | 0% |  |
| Cc1cc(Br)c2c(c1N)C(=O)c1ccccc1C2=O [1-Amino-4-bromo-2-methylanthraquinone] |  | inhibition at 10 µg/mL: 8% |
| Nc1c(S(=O)(=O)O)cc(Br)c2c1C(=O)c1ccccc1C2=O [1-Amino-4-bromo-9,10-dihydro-9,10-dioxo-2-anthracene-sulfonic acid, Na salt] |  | inhibition at 10 ppm: 4.3% |
| Cc1cc(Cl)c2c(c1N)C(=O)c1ccccc1C2=O [1-Amino-4-chloro-2-methylanthraquinone] | 5.2% |  |
| COc1ccc(N)c2c1C(=O)c1ccccc1C2=O [1-Amino-4-methoxyanthraquinone] |  | inhibition at 10 ppm: 57.1% |
| Nc1cccc2c1C(=O)c1cc(Cl)c(Cl)cc1C2=O [1-Amino-6,7-dichloroanthraquinone] | 22.9% |  |
| Cc1ccc(S(=O)(=O)Nc2cc(S(=O)(=O)O)c(N)c3c2C(=O)c2ccccc2C3=O)cc1 [1-Amino-9,10-dihydro-4[[(4-methylphenyl)sulfonyl]-amino]-9,10-dioxo-2-anthracenesulfonic acid, Na salt] |  | inhibition at 10 ppm: 3.9% |
| N#[N+]c1cccc2c1C(=O)c1ccccc1C2=O [1-Aminoanthraquinone diazonium salt] | 20.8% |  |
| Nc1c(S(=O)(=O)O)ccc2c1C(=O)c1ccccc1C2=O [1-Aminoanthraquinone-2-sulfonic acid, 1-Amino-9,10-dihydro-9,10-dioxo-2-anthracenesulfonic acid] | 37.5% |  |
| Nc1cccc2c1C(=O)c1ccccc1C2=O [1-Aminoanthraquinone] |  | inhibition of sulfide production (in words): inhibited sulfide formation; inhibition at 10 ppm: 28.4%; % inhibition of sulfide formation (Table III, Example 3): 72% |
| O=C1c2ccccc2C(=O)c2c1cccc2S(=O)(=O)O [1-Anthraquinonesulfonic acid, Na salt] | 3.9% |  |
| O=C(Nc1ccc(Cl)c2c1C(=O)c1ccccc1C2=O)c1ccccc1 [1-Benzamido-4-chloroanthraquinone, N-(4-Chloro-9,10-dihydro-9,10-dioxo-1-anthracenyl)-benzamide] | 8.6% |  |

| Compound | inhibition at 30 ppm | other results |
| --- | --- | --- |
| O=C(Nc1cccc2c1C(=O)c1cccc(Cl)c1C2=O)c1ccccc1 [1-Benzamido-5-chloroanthraquinone, N-(5-Chloro-9,10-dihydro-9,10-dioxo-1-anthracenyl)-benzamide] | 10.4% |  |
| CNc1ccc(Br)c2c1C(=O)c1ccccc1C2=O [1-Bromo-4-(methylamino)anthraquinone] | 0% |  |
| Cc1ccc(Nc2ccc(O)c3c2C(=O)c2ccccc2C3=O)cc1 [1-Hydroxy-4-(p-toluidino)-anthraquinone, 1-Hydroxy-4-[(4-methylphenyl)amino]-9,10-anthracene-dione] | 3.9% |  |
| O=C1c2ccccc2C(=O)c2c(O)cccc21 [1-Hydroxyanthraquinone] |  | inhibition at 10 ppm: 59.3% |
| Cc1ccc2c(c1-c1c(C)ccc3c1C(=O)c1ccccc1C3=O)C(=O)c1ccccc1C2=O [2,2'-Dimethyl-1,1'-bianthraquinone, 2,2'-Dimethyl-[1,1'-bianthracene]-9,9',10,10'-tetrone] | 59.7% |  |
| Cc1c(C)c(O)c2c(c1O)C(=O)c1ccccc1C2=O [2,3-dimethyl-1,4-dihydroxyanthraquinone] | 5.7% |  |
| O=C1c2c(Br)cc(Br)c(O)c2C(=O)c2c(O)c(Br)cc(Br)c21 [2,4,5,7-Tetrabromochrysazin, 2,4,5,7-Tetrabromo-1,8-dihydroxy-9,10-anthracenedione] |  | inhibition at 10 ppm: 40.6% |
| Nc1ccc2c(c1)C(=O)c1ccc(N)cc1C2=O [2,6-Diaminoanthraquinone] |  | inhibition at 10 ppm: 27.2% |
| O=C1c2ccc(O)cc2C(=O)c2ccc(O)cc21 [2,6-Dihydroxyanthraquinone] |  | inhibition at 10 ppm: 28.2% |
| CC(C)(C)C(=O)Nc1ccc2c(c1)C(=O)c1ccccc1C2=O [2-(2,2,2-Trimethylpropionamido)anthraquinone] | 48.1% |  |
| O=C1c2ccccc2C(=O)c2cc(NC(=O)C3CC3)ccc21 [2-(Cyclopropylcarboxamido)anthraquinone] | 2.6% |  |
| O=C1c2ccccc2C(=O)c2cc(CO)ccc21 [2-(Hydroxymethyl)anthraquinone] | 87% |  |
| Nc1cc2c(cc1Cl)C(=O)c1ccccc1C2=O [2-Amino-3-chloroanthraquinone] | 3.9% |  |
| Nc1cc2c(cc1O)C(=O)c1ccccc1C2=O [2-Amino-3-hydroxyanthraquinone] | 11.4% |  |
| Nc1ccc2c(c1)C(=O)c1ccccc1C2=O [2-Aminoanthraquinone] |  | inhibition at 10 ppm: 30.4% |
| Cc1cc2c(cc1Br)C(=O)c1ccccc1C2=O [2-Bromo-3-methylanthraquinone] | 26% |  |
| O=C1c2ccccc2C(=O)c2cc(Cl)ccc21 [2-Chloroanthraquinone] | 98.7% |  |
| CCc1ccc2c(c1)C(=O)c1ccccc1C2=O [2-Ethylanthraquinone] |  | inhibition at 10 µg/mL: 57.1% |
| COc1cc2c(cc1C)C(=O)c1ccccc1C2=O [2-Methoxy-3-methyl-9,10-anthracenedione] | 5% |  |
